Test results reported in article PMC6222747, “Synthesis and Structure-Activity Relationship of Daphnetin Derivatives as Potent Antioxidant Agents” (Molecules : A Journal of Synthetic Chemistry and Natural …, 2018).

Legend:
[1] = ABTS+ radical scavenging assay; assay type: biochemical; conditions: 3 min at room temperature, absorbance 734 nm, triplicate
Experimental: (§1) The antioxidant activity is influenced by many factors, which cannot be fully described with a single antioxidant assay. Thus, in this study, antioxidant activities in vitro were evaluated using the free radical scavenging effect on 2,2′-diphenyl-1-picrylhydrazyl (DPPH), 2,2′-azinobis-(3-ethylbenzthiazoline-6-sulfonate) cation (ABTS^+). and the ferric reducing power (FRAP) assay, respectively, according to the literature with a slight modification.
The mixture was incubated in the dark at room temperature for 15–16 h before use. […] Each sample solution (0.1 mL) was added to 3.9 mL ABTS^+ solution, and the absorbance was measured at room temperature after 3 min. The Trolox standard solution (concentration range: 0–0.4 mmol/L) in ethanol was analyzed under the same conditions as those used for the calibration. […]

[2] = DPPH radical scavenging assay; assay type: biochemical; conditions: for EC50: DPPH radical scavenging, 30 min at room temperature, absorbance 517 nm, triplicate; for DPPH antioxidant activity compared with DAP 1, result in words: DPPH assay
Experimental: as §1
Each sample in an ethanol solution (0.1 mL) was added to 3.9 mL DPPH ethanol solution (0.1 mmol/L). The solution was vortexed for 10 s and incubated at room temperature for 30 min. […] The Trolox standard solution (concentration range: 0–0.4 mmol/L) in ethanol was analyzed under the same conditions as those used for calibration. […]

[3] = Ferric reducing power (FRAP) assay; assay type: biochemical; conditions: for reducing antioxidant power (FRAP), result in words: compared with daphnetin or the parent compound; for reducing antioxidant power, fold higher than that of the standard antioxidant Trolox: relative to Trolox
Experimental: as §1
The FRAP (ferric reducing antioxidant power) reagent was prepared with acetate buffer (300 mmol/L, pH 3.6), 2,4,6-tripyridyl-s-triazine (TPTZ) (10 mmol/L in HCl, 40 mmol/L) and FeCl3 (20 mmol/L). The proportions were 10:1:1 (v:v:v), respectively. Each sample solution was added to the FRAP reagent (1:30, v:v) and incubated at 37 °C for 5 min. The absorbance was determined at 593 nm using a spectrophotometer (Hitachi U-2800 Spectrophotometer, Tokyo, Japan). The Trolox standard solution (concentration range: 0–0.4 mmol/L) in ethanol was analyzed under the same conditions as those used for the calibration. The values of the reducing power were determined using a calibration curve of Trolox and expressed as the Trolox equivalent ([…], mmolTrolox/mmol sample).

[4] = Metabolic stability assay in vitro (UGT and COMT incubation system, S9 fraction); assay type: in vitro ADME, human; conditions: for half-life: UGT and COMT incubation system, pooled human S9, 2 mM UDPGA and 0.2 mM SAM, 37 °C, pH 7.4, read-out: metabolic elimination t1/2
From the text: The simultaneous improvement of utility as a drug and pharmacological activity is still a challenge for the structural optimization of lead compounds. From the view of the chemical structure, the catechol group is not only the pharmacophore of the coumarins but also the susceptible group for the attack of phase II metabolic enzymes. As phenolic hydroxyls, catechol coumarins primarily undergo conjugative reactions mediated by phase II metabolizing enzymes, including uridine-5-diphosphate glucuronosyl transferase (UGT) and catechol-O-methyltransferase (COMT). […] In summary, 4-carbethoxyl DAP 9 holds strong potential to be developed as an antioxidant agent with excellent antioxidant activity and good pharmacokinetic properties.
Metabolic stability assay in vitro
To determine the effects of a combination of glucuronidation and methylation, daphnetin and compound 9 were
incubated with S9 fraction in the presence of two cofactors (2 mM UDPGA and 0.2 mM SAM). The incubation mixture
contained pooled human S9 fraction (0.02 mg mL-1 protein), 5 mM MgCl2, 2 mM UDPGA, 0.2 mM SAM and 5 mM
daphnetin derivatives (dissolved in DMSO, final concentration 1%) in 200 mL of 50 mM Tris buffer (pH 7.4), as
described in the reported manuscript. Controls were incubated in the absence of UDPGA and SAM. After incubation at
37 °C for 0 to 6 0 min, the reactions were terminated by adding […] of cold acetonitrile. The samples were
centrifuged at 20 000 g for 20 min. The supernatants (200 mL) were subjected to assay for the time - dependent
esculetins depletion using HPLC.
Daphnetin and compound 9 were analyzed by a ultra - fast l iquid chromatography spectrometry system (Shimadzu,
Kyoto, Japan), equipped with two LC - 20AD pumps, a DGU - 20A3 vacuum degasser, a SIL - 20ACHT auto - sampler, a
CTO - 20AC column oven, an SPD - M 20A diode - array detector (DAD), a CBM - 20A communicati ons bus module, a […]
the equation: t1/2 = ln2/-k, where k represents the terminal elimination rate constant and is calculated as the negative […]

human single cell DNA = system: human single cell DNA; parameters: method as in PMID 12561251; conditions: cited from earlier work
[5] = system: mononuclear cells of umbilical blood; parameters: method as in PMID 15113635; conditions: cited from earlier work

`CC(=O)Oc1ccc2ccc(=O)oc2c1OC(C)=O` [Compound 12, 2-oxo-2H-Chromene-7,8-diyl diacetate] showed an EC50 [1] of 4560 ± 50.1 µM and an EC50 [2] of 698 ± 5.22 µM.
In the case of `[N-]=[N+]=NCc1cc(=O)oc2c(O)c(O)ccc12` [Compound 8, 7,8-Dihydroxy-4-azidemethyl-2H-chromen-2-one], the EC50 [1] is reported as 238 ± 4.47 µM, the EC50 [2] is reported as 62.2 ± 3.73 µM and the “reducing antioxidant power (FRAP), result in words” value (“reducing antioxidant power (FRAP)” below) [3] is reported as “markedly decreased antioxidant activity”.
With `CC(C)(C)c1cc(=O)oc2c(O)c(O)ccc12` [Compound 4, 7,8-Dihydroxy-4-tert-butyl-2H-chromen-2-one] the EC50 [1] was 234.7 ± 2.03 µM, the EC50 [2] was 65.5 ± 2.84 µM and the “reducing antioxidant power (FRAP)” value [3] was “decreased activities of daphnetin but were still superior to Trolox”.
In the case of `O=c1cc(C(F)(F)F)c2ccc(O)c(O)c2o1` [Compound 5, 7,8-Dihydroxy-4-trifluoromethyl-2H-chromen-2-one], the EC50 [1] is reported as 75.2 ± 1.58 µM, the EC50 [2] is reported as 45.7 ± 1.26 µM and the “reducing antioxidant power (FRAP)” value [3] is reported as “three-fold increase in reducing antioxidant power”.
`O=C(O)Cc1cc(=O)oc2c(O)c(O)ccc12` [Compound 9, 2-(7,8-Dihydroxy-2-oxo-2H-chromen-4-yl)acetic acid] gave an EC50 ([1]; listed as 4-CH2COOH DAP (9)) of 72.3 ± 2.7 µM, an EC50 [2] of 31.4 ± 0.68 µM and a half-life [4] of 96.5 min. The “t1/2 of compound 9 relative to that of compound 1” value ([4]; UGT and COMT incubation systems in vitro) was “five-fold longer” and the “reducing antioxidant power (FRAP)” value [3] was “three-fold increase in reducing antioxidant power”.
In the case of `O=c1oc2c(O)c(O)ccc2cc1-c1ccccc1` [Compound 13], the EC50 [1] is reported as 108 ± 1.42 µM, the “DPPH antioxidant activity compared with DAP 1, result in words” value [2] is reported as “more effective” and the EC50 [2] is reported as 43.7 ± 2.08 µM.
`Cc1c(C)c2c(c(C)c1O)CCC(C)(C(=O)O)O2` (stereo not drawn) [Trolox, 6-hydroxy-2,5,7,8-tetramethylchroman-2-carboxylic acid, reference compound] gave an EC50 [1] of 241 ± 2.52 µM and an EC50 [2] of 53.2 ± 2.02 µM.
Compound `Cc1c(C(F)(F)F)c2ccc(O)c(O)c2oc1=O` [Compound 24, 7,8-Dihydroxy-3-methyl-4-(trifluoromethyl)-2H-chromen-2-one] has an EC50 [1] of 107 ± 6.23 µM and an EC50 [2] of 53.8 ± 2.25 µM.
With `COc1cc2ccc(=O)oc2c(O)c1O` [Compound 11, Fraxetin, reference compound] the EC50 [1] was 173 ± 4.83 µM and the EC50 [2] was 45.6 ± 1.48 µM.
For `Cc1cc(=O)oc2c(O)c(O)ccc12` [Compound 2, 7,8-Dihydroxy-4-methyl-2H-chromen-2-one], the EC50 [1] is listed as 224.5 ± 1.94 µM, the “protection of human single cell DNA from oxidative attack, compared with curcumin and resveratrol” value (human single cell DNA) is listed as “more effective in protection of human single cell DNA from oxidative attack than curcumin and resveratrol” and the “protection of mononuclear cells of umbilical blood from oxidative attack, compared with resveratrol” value [5] is listed as “stronger activities in protecting mononuclear cells of umbilical blood from oxidative attack than resveratrol”. The EC50 [2] was 85.6 ± 2.13 µM and the “reducing antioxidant power (FRAP)” value [3] was “decreased activities of daphnetin but were still superior to Trolox”.
With `O=C(O)c1c(-c2nc3ccccc3s2)c(=O)oc2c(O)c(O)ccc12` [Compound 21, 3-(Benzo[d]thiazol-2-yl)-7,8-dihydroxy-2-oxo-2H-chromene-4-carboxylic acid] the EC50 [1] was 108 ± 6.35 µM, the EC50 [2] was 130 ± 3.54 µM and the “reducing antioxidant power (FRAP)” value [3] was “significant decrease in antioxidant activity”.
In the case of `O=c1cc(-c2ccccc2)c2ccc(O)c(O)c2o1` [Compound 3, 7,8-Dihydroxy-4-phenyl-2H-chromen-2-one], the EC50 [1] is reported as 198 ± 28.2 µM, the “DPPH antioxidant activity compared with DAP 1, result in words” value [2] is reported as “lower than that of DAP 1” and the EC50 [2] is reported as 55.6 ± 0.78 µM. For the same compound, the “reducing antioxidant power (FRAP)” value [3] was “decreased activities of daphnetin but were still superior to Trolox”.
With `O=c1oc2c(O)c(O)ccc2cc1-c1nc2ccccc2s1` [Compound 19] the EC50 [1] was 86.6 ± 3.17 µM, the EC50 [2] was 71.3 ± 2.4 µM and the “reducing antioxidant power (FRAP)” value [3] was “slightly reduced antioxidant activity”.
For `C#CCNC(=O)c1cc2ccc(O)c(O)c2oc1=O` [Compound 18], the EC50 [1] was 91.2 ± 2.29 µM, the EC50 [2] was 55.6 ± 1.48 µM and the “reducing antioxidant power (FRAP)” value [3] was “this situation did not change”.
With `O=c1oc2c(O)c(O)ccc2c(-c2nnn[nH]2)c1-c1nc2ccccc2s1` [Compound 23, 3-(Benzo[d]thiazol-2-yl)-7,8-dihydroxy-4-(1H-tetrazol-5-yl)-2H-chromen-2-one] the EC50 [1] was 121.7 ± 0.22 µM, the EC50 [2] was 168 ± 11.6 µM and the “reducing antioxidant power (FRAP)” value [3] was “lower antioxidant activity compared with that of compound 19”.
For `O=C(O)c1cc2ccc(O)c(O)c2oc1=O` [Compound 16], the EC50 [1] was 146 ± 5.77 µM, the EC50 [2] was 37.7 ± 1.16 µM and the “reducing antioxidant power (FRAP)” value [3] was “little effect on its antioxidant activity”.
In the case of `O=c1ccc2ccc(O)c(O)c2o1` [Compound 1, 7,8-dihydroxycoumarin, reference compound], the EC50 [1] is given as 159 ± 4.63 µM, the “protection of mononuclear cells of umbilical blood from oxidative attack, compared with resveratrol” value [5] is given as “stronger activities in protecting mononuclear cells of umbilical blood from oxidative attack than resveratrol” and the EC50 [2] is given as 46.2 ± 1.45 µM. The half-life [4] was 20.3 min and the “reducing antioxidant power, fold higher than that of the standard antioxidant Trolox” value [3] was 2.5 fold.
In the case of `NC(=O)c1c(-c2nc3ccccc3s2)c(=O)oc2c(O)c(O)ccc12` [Compound 22, 3-(benzo[d]thiazol-2-yl)-7,8-dihydroxy-2-oxo-2H-chromene-4-carboxamide], the EC50 [1] is reported as 122 ± 4.41 µM, the EC50 [2] is reported as 66.8 ± 1.38 µM and the “reducing antioxidant power (FRAP)” value [3] is reported as “lower antioxidant activity compared with that of compound 19”.
In the case of `CC(=O)c1cc2ccc(O)c(O)c2oc1=O` [Compound 15], the EC50 [1] is reported as 80.52 ± 0.61 µM, the EC50 [2] is reported as 50.6 ± 0.61 µM and the “reducing antioxidant power, fold higher than that of the standard antioxidant Trolox” value [3] is reported as 3 fold.
For “Methyl 2-(7,8-dihydroxy-2-oxo-2H-chromen-4-yl)acetic acid [Compound 10]”, the EC50 [1] was 222.7 ± 1.84 µM, the EC50 [2] was 50.2 ± 1.12 µM and the “reducing antioxidant power (FRAP)” value [3] was “significant decrease in antioxidant activity”.
For `N#Cc1cc2ccc(O)c(O)c2oc1=O` [Compound 14], the EC50 [1] was 95.8 ± 4.18 µM, the EC50 [2] was 47 ± 2.05 µM and the “reducing antioxidant power, fold higher than that of the standard antioxidant Trolox” value [3] was 3 fold.
With `CCOC(=O)c1cc2ccc(O)c(O)c2oc1=O` [Compound 17] the EC50 [1] was 138.9 ± 0.14 µM, the EC50 [2] was 44 ± 0.89 µM and the “reducing antioxidant power (FRAP)” value [3] was “this situation did not change”.
